{"source": "patent US12622915B2", "about": "“Methods of treating PDE IV-mediated diseases or conditions” (Vanda Pharmaceuticals Inc., priority 2020, dated 2026)", "key": {"[1]": {"assay": "Preclinical genotoxicity studies (mutations, clastogenic effects)", "settings": "in vitro or in vivo"}, "[2]": {"target": "T1, Phosphodiesterase PDE2A (Homo sapiens, UniProt O00408)", "T1 construct": "host or cells: insect Sf9 cells", "T1 sequence (O00408 whole entry)": "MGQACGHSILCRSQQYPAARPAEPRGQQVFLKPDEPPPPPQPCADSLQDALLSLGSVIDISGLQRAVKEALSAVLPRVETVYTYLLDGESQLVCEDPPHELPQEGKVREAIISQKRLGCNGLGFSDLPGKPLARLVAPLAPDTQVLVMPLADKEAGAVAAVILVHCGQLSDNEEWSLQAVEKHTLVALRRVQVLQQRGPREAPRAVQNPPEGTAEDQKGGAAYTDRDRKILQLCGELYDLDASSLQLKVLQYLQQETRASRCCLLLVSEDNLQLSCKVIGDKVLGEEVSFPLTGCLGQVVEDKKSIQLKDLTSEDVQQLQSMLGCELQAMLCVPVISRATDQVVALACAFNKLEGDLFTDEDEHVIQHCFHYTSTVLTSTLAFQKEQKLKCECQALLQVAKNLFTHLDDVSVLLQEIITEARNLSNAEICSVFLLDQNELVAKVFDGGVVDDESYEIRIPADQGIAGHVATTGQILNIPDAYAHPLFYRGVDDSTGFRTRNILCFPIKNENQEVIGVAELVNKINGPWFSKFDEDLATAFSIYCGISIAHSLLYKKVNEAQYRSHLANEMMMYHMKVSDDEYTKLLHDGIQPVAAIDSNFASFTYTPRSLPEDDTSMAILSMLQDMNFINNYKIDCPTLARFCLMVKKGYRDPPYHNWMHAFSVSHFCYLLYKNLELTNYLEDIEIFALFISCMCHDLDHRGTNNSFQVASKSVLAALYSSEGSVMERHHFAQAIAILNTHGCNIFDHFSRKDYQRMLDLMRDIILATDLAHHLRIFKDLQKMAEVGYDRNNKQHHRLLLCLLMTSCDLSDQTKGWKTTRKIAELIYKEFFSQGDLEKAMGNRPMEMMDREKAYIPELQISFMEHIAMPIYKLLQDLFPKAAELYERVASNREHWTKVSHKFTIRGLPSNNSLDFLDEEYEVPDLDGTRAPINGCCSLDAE", "assay": "Phosphodiesterase PDE2A enzyme assay", "assay_type": "biochemical", "settings": "N=2, Example 3", "excerpt": "(§1) Reference standards are run as an integral part of each assay to ensure the validity of the results obtained. Reference Compounds: • Phosphodiesterase PDE10A2 Papaverine • Phosphodiesterase PDE11A4 Dipyridamole • Phosphodiesterase PDE1A MMPX • Phosphodiesterase PDE2A EHNA • Phosphodiesterase PDE3A Cilostamide • Phosphodiesterase PDE4A1A Rolipram • Phosphodiesterase PDE4B1 Rolipram • Phosphodiesterase PDE5A Zaprinast • Phosphodiesterase PDE6 Zaprinast • Phosphodiesterase PDE7A IBMX • Phosphodiesterase PDE7B IBMX • Phosphodiesterase PDE8A1 Dipyridamole • Phosphodiesterase PDE9A2 Zaprinast\n(§2) Phosphodiesterase PDE4A1A; Phosphodiesterase PDE4B1; Phosphodiesterase PDE10A2; Phosphodiesterase PDE11A4; Phosphodiesterase PDE2A; Phosphodiesterase PDE3A; Phosphodiesterase PDE7A; Phosphodiesterase PDE7B; and Phosphodiesterase PDE8A1: • Source: Human recombinant insect Sf9 cells • Substrate: 0.10 μM FAM-cAMP • Vehicle: 1.00% DMSO • Significance Crit.: ≥50% of max stimulation or inhibition • Incubation Buffer: 10 mM Tris-HCl, pH 7.2, 10 mM MgCl2, 0.05% NaN3, 0.1% phosphate-free BSA • Quantitation Method: Quantitation of Fluorescein-AMP-IMAP • Pre-Incub. Time/Temp: 15 minutes @25° C. • Incubation Time/Temp: 30 minutes @25° C.\n(§3) IC50 values are determined by a non-linear, least squares regression analysis using MathIQ™ (ID Business Solutions Ltd., UK). […]"}, "[3]": {"assay": "Ocular instillation studies", "assay_type": "in vivo", "settings": "preclinical ocular instillation studies"}, "[4]": {"target": "T2, Phosphodiesterase PDE3A (Homo sapiens, UniProt Q14432)", "T2 construct": "host or cells: insect Sf9 cells", "T2 sequence (Q14432 whole entry)": "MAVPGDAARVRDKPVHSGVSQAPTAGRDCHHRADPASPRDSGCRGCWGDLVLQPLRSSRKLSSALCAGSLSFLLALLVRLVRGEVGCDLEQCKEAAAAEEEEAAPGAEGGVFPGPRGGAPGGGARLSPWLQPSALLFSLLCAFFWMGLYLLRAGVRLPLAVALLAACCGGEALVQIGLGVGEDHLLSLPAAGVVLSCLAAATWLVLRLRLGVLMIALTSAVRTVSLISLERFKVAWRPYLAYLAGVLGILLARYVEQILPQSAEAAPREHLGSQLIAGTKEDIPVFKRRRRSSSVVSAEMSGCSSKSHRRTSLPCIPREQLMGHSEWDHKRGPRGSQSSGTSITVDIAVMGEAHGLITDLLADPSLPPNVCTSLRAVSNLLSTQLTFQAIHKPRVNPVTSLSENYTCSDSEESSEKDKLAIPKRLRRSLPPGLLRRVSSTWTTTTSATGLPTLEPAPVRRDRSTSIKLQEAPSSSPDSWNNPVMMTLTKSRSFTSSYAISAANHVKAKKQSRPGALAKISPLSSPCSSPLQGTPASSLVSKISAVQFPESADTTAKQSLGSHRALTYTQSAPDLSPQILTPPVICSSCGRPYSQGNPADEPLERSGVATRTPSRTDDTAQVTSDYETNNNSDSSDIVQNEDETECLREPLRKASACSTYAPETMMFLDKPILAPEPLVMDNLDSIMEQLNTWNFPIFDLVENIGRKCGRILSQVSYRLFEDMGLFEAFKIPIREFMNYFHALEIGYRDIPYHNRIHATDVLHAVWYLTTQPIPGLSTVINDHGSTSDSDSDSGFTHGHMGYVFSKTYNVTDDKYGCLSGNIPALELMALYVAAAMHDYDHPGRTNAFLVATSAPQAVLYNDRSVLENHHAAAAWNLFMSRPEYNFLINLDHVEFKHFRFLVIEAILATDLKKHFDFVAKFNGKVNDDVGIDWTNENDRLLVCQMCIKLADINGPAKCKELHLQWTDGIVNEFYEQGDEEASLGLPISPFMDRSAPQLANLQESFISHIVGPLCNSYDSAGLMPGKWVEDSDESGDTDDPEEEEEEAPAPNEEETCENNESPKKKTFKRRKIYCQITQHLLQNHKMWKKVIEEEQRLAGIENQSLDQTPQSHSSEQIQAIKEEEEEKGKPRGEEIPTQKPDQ", "assay": "Phosphodiesterase PDE3A enzyme assay", "assay_type": "biochemical", "settings": "N=2, Example 3", "excerpt": "as §1, §2, §3"}, "[5]": {"target": "T3, Phosphodiesterase PDE4B1 (Homo sapiens, UniProt Q07343)", "T3 construct": "host or cells: insect Sf9 cells", "T3 sequence (Q07343 whole entry)": "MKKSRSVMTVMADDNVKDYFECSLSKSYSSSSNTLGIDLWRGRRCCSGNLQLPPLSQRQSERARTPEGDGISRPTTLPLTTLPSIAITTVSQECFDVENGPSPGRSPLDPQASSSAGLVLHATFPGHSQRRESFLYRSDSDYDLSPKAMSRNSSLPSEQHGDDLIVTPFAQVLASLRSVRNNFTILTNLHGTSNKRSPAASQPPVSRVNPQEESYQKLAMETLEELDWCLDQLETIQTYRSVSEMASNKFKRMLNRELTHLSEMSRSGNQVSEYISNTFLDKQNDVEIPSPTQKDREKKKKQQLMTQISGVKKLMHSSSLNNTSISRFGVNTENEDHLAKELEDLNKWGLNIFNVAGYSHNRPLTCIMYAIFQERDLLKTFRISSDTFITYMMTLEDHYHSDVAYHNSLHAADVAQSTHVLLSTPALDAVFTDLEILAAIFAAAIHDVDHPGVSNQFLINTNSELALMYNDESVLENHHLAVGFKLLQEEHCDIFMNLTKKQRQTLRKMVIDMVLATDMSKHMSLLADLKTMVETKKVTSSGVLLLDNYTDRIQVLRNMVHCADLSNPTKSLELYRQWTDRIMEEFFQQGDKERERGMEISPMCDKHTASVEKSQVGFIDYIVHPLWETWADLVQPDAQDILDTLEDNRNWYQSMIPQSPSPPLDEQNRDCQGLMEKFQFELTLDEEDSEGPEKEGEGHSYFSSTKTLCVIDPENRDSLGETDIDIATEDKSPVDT", "assay": "Phosphodiesterase PDE4B1 enzyme assay", "assay_type": "biochemical", "excerpt": "as §1\nPDE4 assays are performed using methods adapted from the literature. See Richter W, et al. (2001) Identification of inhibitor binding sites of the cAMP-specific phosphodiesterase 4. Cell Signal. 13(4): 287-297; Wang H, et al. (2005) Multiple elements jointly determine inhibitor selectivity of cyclic nucleotide phosphodiesterases 4 and 7. J Biol Chem. 280(35): 30949-30955.\nas §2\n(§4) IC50 values are determined by a non-linear, least squares regression analysis using MathIQ™ (ID Business Solutions Ltd., UK). Where inhibition constants (Ki) are presented, the Ki values are calculated using the equation of Cheng and Prusoff (Cheng, Y., Prusoff, W. H., Biochem. Pharmacol. 22:3099-3108, 1973) using the observed IC50 of the tested compound, the concentration of radioligand employed in the assay, and the historical values for the KD of the ligand. Where presented, the Hill coefficient (nH), defining the slope of the competitive binding curve, is calculated using MathIQ™. […] Where IC50, Ki, and/or nH data are presented without Standard Error of the Mean (SEM), data are insufficient to be quantitative, and the values presented (Ki, IC50, nH) are interpreted with caution.\nReference standards are run as an integral part of each assay to ensure the validity of the results obtained. Rolipram is used for the PDE4 assays.\nPhosphodiesterase PDE4B1: • Source: Human recombinant insect Sf9 cells • Substrate: 0.10 μM FAM-cAMP • Vehicle: 1.00% DMSO • Significance Crit.: ≥50% of max stimulation or inhibition • Incubation Buffer: 10 mM Tris-HCl, pH 7.2, 10 mM MgCl2, 0.05% NaN3, 0.1% phosphate-free BSA • Quantitation Method: Quantitation of Fluorescein-AMP-IMAP • Pre-Incub. Time/Temp: 15 minutes @25° C. • Incubation Time/Temp: 30 minutes @25° C.\nas §4, with “W.H.,” for “W. H.,”"}}, "data": [{"compound": "CNc1nc(Nc2ccccc2)nc(OCC(F)(F)C(F)F)n1", "note": "[compound of Formula (I), N^2-methyl-N^4-phenyl-6-(2,2,3,3-tetrafluoropropoxy)-1,3,5-triazine-2,4-diamine]", "values": [{"measurement": "Mutations or biologically relevant clastogenic effects", "setting": "[1]", "value": "does not induce mutations or biologically relevant clastogenic effects"}, {"measurement": "inhibition at 10 µM", "setting": "[2]", "value": 9, "unit": "%"}, {"measurement": "Tolerability on ocular instillation", "setting": "[3]", "value": "well tolerated"}, {"measurement": "inhibition at 10 µM", "setting": "[4]", "value": 6, "unit": "%"}, {"measurement": "inhibition at 0.01 µM", "setting": "[5]; 10 nM, N=2, Example 4", "value": 17, "unit": "%"}, {"measurement": "inhibition at 0.03 µM", "setting": "[5]; 0.03 μM, N=2, Example 4", "value": 34, "unit": "%"}, {"measurement": "inhibition at 0.1 µM", "setting": "[5]; 0.1 μM, N=2, Example 4", "value": 49, "unit": "%"}, {"measurement": "inhibition at 0.3 µM", "setting": "[5]; 0.3 μM, N=2, Example 4", "value": 70, "unit": "%"}, {"measurement": "inhibition at 1 µM", "setting": "[5]; 1 μM, N=2, Example 4", "value": 83, "unit": "%"}, {"measurement": "inhibition at 3 µM", "setting": "[5]; 3 μM, N=2, Example 4", "value": 91, "unit": "%"}, {"measurement": "inhibition at 10 µM", "setting": "[5]; N=2, Example 3", "value": 96, "unit": "%"}, {"measurement": "inhibition at 10 µM", "setting": "[5]; N=2, Example 4", "value": 94, "unit": "%"}, {"measurement": "IC50", "setting": "[5]; Example 4", "value": 94, "unit": "nM"}]}]}
